These results are taken from patent publication EP1242382B1, “TRICYCLIC PROTEIN KINASE INHIBITORS” (Wyeth, priority 1999, dated 2001).

Assay [1] has as its target T1, EGF-R Kinase (recombinant enzyme) (Homo sapiens, UniProt P00533).
T1 construct: EGFR cDNA encoding amino acids 645 - 1186 preceded by Met-Ala-(His)6; made in house; host or cells: Sf9 insect cells, recombinant baculovirus vHcEGFR52
The experiment in a line: Inhibition of Epidermal Growth Factor Receptor Kinase (EGF-R) using recombinant enzyme. The assay is classed as biochemical. The note with it: RR-SRC peptide substrate, (a) = average of two tests. How it is done: Representative test compounds are evaluated in a standard pharmacological test procedure to measure their ability to inhibit the phosphorylation of the tyrosine residue of a peptide substrate catalyzed by the enzyme epidermal growth factor receptor kinase. […] The enzyme used in this assay is the His-tagged cytoplasmic domain of EGFR. […] Sf9 cells in 100 mm plates are infected at a multiplicity of infection of 10 pfu/cell and cells are harvested 48 h post infection. A cytoplasmic extract is prepared using 1% Triton X-100 and applied to Ni-NTA column. After washing the column with 20 mM imidazole, HcEGFR is eluted with 250 mM imidazole (in 50 mM Na2HPO4, pH 8.0, 300 mM NaCl). Fractions collected are dialyzed against 10 mM HEPES, pH 7.0, 50 mM NaCl, 10% glycerol, 1ug/mL antipain and leupeptin and 0.1 mM Pefabloc SC. The protein is frozen in dry ice/methanol and stored -70°C.
Test compounds are made into 10 mg/mL stock solutions in 100% dimethylsulfoxide (DMSO). Prior to experiment, stock solutions are diluted to 500 uM with 100% DMSO and then serially diluted to the desired concentration with HEPES buffer (30 mM HEPES pH 7.4).
For the enzyme reaction, 10 uL of each inhibitor (at various concentrations) are added to each well of a 96-well plate. To this is added 3 uL of enzyme (1:10 dilution in 10mM HEPES, pH 7.4 for final conc. of 1:120). This is allowed to sit for 10 min on ice and is followed by the addition of 5 ul peptide (80 uM final conc.), 10ul of 4X Buffer containing 50 mM HEPES (pH 7.4), 200 mM Na3VO4, 40mM MnCl2, 80 uM ATP, 0.25 uL ^33P-ATP (>2500 Ci/mmol; Amersham) and 12 uL H2O. The reaction is allowed to run for 90 min at room temperature and is followed by spotting the entire volume onto precut P81 filter papers. The filter discs are washed 2X with 0.5% phosphoric acid and radioactivity is measured using a liquid scintillation counter.
The % inhibition of the test compound is determined for at least three different concentrations and the IC50 value is evaluated from the dose response curve. […] CPM(control) is in units of counts per minute and is a number expressing the amount of radiolabled ATP (γ-^33P) incorporated into the RR-SRC peptide substrate by the enzyme after 90 minutes at room temperature in the absence of test compound as measured by liquid scintillation counting. The CPM values are corrected for the background counts produced by ATP in the absence of the enzymatic reaction.

A further assay concerns A431. The experiment in a line: Inhibition of cancer cell growth as measured by cell number (Sulforhodamine B). Format: cell-based. The note with it: Homo sapiens, A-431; 48 hours exposure. Here is the method: (§1) Human tumor cell lines are plated in 96-well plates (250 µl/well, 1-6 x 10^4 cells/ml) in RPMI 1640 medium, containing 5% FBS (Fetal Bovine Serum). Twenty four hours after plating, test compounds are added at various concentrations. After 48 hours exposure to test compounds, cells are fixed with trichloroacetic acid, and stained with Sulforhodamine B. After washing with trichloroacetic acid, bound dye is solubilized in 10 mM Tris base and optical density is determined using plate reader. Under conditions of the assay the optical density is proportional to the number of cells in the well. […] The test procedure is described in detail by Philip Skehan et. al, J. Natl. Canc. Inst., 82, 1107-1112 (1990). […] Information about some of the cell lines used in these test procedures is available from the American Type Tissue Collection: Cell Lines and Hybridomas, 1994 Reference Guide, 8th Edition.

The test system of a further assay is SW620. Described as above. The assay is classed as cell-based. The settings on record: Homo sapiens, SW-620; 48 hours exposure. How it is done:
as §1

For assay [2], the system named is Human adenocarcinoma cell line LoVo. The experiment in a line: Cell based screen for inhibitors of Raf kinase, quantitative assay. The settings on record: 96 h, four days incubation. Here is the method: (§2) • Cell Lines: Human adenocarcinoma cell line LoVo which is known to be growth inhibited by low nM concentrations of a reference standard inhibitor of Ras and human adenocarcinoma cell line CaCo-2, which is known to be growth resistant to the same reference compound. • Cell Media : RPMI 1640 with 10% Fetal Bovine Serum supplemented with L-glutamine and Pennicilin/Streptomycin. • Compounds: Supplied usually as a 10 mM stock in 100% DMSO. • Normal Saline: 150 mM NaCl • Trichloroacetic Acid (TCA): 50% (w/v) in water • Sulforhodamine B (SRB): 0.4% (w/v) in 1% Acetic Acid • Tris Base: 10 mM in water
(§3) Cells are plated at 2000 cells per well for cell line LoVo and 1500 cells for cell line CaCo-2 in 96 well plates. Cells are plated in media (200 µl) and allowed to adhere overnight at 37°C. At 24 hours post plating, compounds are added directly at a volume of 0.5 µl. For the qualitative screen (compounds screened at 25 µM) compound is added directly to cells. For the quantitative screen, compound is first diluted in DMSO to generate concentrations of compound or reference standard of: 1, 5, 10 and 25 µM. It is advisable to make the dilutions in an identical 96 well plate so that compounds can be added using a multichannel micropipettor set at 0.5 µl. The cells are then incubated for four days after which the media is removed using a 12 well manifold by first tipping the plate forward at a 45 degree angle and then inserting the manifold in an upright orientation to prevent the tips of the manifold from disturbing cells at the bottom of the plate. 200 µl of normal saline is then added to each well using an 8 well multichannel pipettor, followed by the careful addition of 50 µl of 50% TCA. The plates are then incubated for 2 hours at 4°C, after which the supernatant is removed using the same technique as above and the plated washed twice with 200 µl water. The plates are then air dried and 50 µl of SRB stock solution is carefully added so that the entire bottom of each well is covered. This again can be used using an 8 well multichannel pipettor. The SRB is incubated with fixed cells for 15 minutes at room temperature after which the SRB is removed with the manifold as described above and the plates washed twice with 350 µl of 1% acetic acid per well each time. The plates are then air dried after which the bound SRB is released from protein by the addition of 200 µl of Tris base. Resolubilizing the SRB is aided by placing the plates on a rotator for 15-30 minutes. The absorbance of each well is determined at 550 or 562 nm using a microtiter plate reader.
(§4) Each compound or dilution thereof is performed in triplicate. Outliers are identified by visual inspection of the data. Each plate should have a "0" control (vehicle only).
(§5) Quantitative Assay: A standard curve is constructed by plotting the concentration of compound against the average absorbance calculated at that concentration. […] Multiple entries for a given compound indicate that it is tested multiple times.

Assay [3] deals with human adenocarcinoma cell line CaCo-2. The description is as above. The note with it: Caco-2, 96 h, four days incubation. Here is the method: as §2, §3, §4, §5

SMILES strings stand for the structures. In brackets after ≈: the same amount, converted by molar mass.

T1 sequence (P00533 669-1210): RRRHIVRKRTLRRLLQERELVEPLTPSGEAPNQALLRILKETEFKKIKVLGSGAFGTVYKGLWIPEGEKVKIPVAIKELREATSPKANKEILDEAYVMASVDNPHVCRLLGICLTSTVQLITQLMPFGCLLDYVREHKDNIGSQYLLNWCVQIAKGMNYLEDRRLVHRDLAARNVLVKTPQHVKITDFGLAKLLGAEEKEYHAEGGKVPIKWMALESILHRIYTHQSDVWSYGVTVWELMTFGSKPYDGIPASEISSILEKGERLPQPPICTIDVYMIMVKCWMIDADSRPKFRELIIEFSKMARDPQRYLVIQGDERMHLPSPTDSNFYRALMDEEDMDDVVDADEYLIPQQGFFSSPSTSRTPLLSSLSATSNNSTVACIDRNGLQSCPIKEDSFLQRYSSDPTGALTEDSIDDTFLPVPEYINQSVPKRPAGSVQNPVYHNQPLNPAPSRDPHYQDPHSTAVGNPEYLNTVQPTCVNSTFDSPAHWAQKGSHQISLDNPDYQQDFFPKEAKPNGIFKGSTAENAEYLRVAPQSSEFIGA

For the compound `COc1cc2cc3c(Nc4ccc(OCc5ccccc5)c(Cl)c4)c(C#N)cnc3cc2cc1OCCN1CCOCC1` [Example 218, 4-(4-Benzyloxy-3-chlorophenylamino)-7-methoxy-8-(2-morpholin-4-yl-ethoxy)benzo[g]quinoline-3-carbonitrile], the IC50 (usually the concentration that inhibits the measured activity by half) in assay [1] was found to be 0.0053 µM; in the assay with A431 it was 4.7 µg/mL (≈ 7.9 µM); with SW620, 11.6 µg/mL (≈ 19.5 µM); in assay [2], 0.43 µM; in assay [3] it was 6 µM.
